Assay results taken from publication PMC8986778, “Citrullination of glucokinase is linked to autoimmune diabetes” (Nature Communications, 2022).
Non-standard residues stand in square brackets, D forms with d. Residues, ends and D or L forms follow the SMILES beside them. Cit = NC(=O)NCCC[C@H](N)C(=O)O

Each molecule was assayed against T1, DR0401 protein (Homo sapiens, UniProt P01903+P01911, A100K/A169T/F76Y/I96L/K127E/L162R/M171V/N62H/P40V/Q125Y/R42H/S133A/S149N/S66Y/V115G/V209L/W38E) (assay: DR0401 peptide binding competition assay). Conditions: Supplementary Table 2; competition with biotin-HA306-318 0.02 μM; read-out: IC50 (Binding of Predicted Glucokinase Peptides to DR04:01).
T1 construct: made in house; host or cells: insect cell cultures

| SMILES | IC50 [µM] |
| --- | --- |
| CC(C)C[C@H](NC(=O)[C@H](CCC(N)=O)NC(=O)[C@H](CCC(=O)O)NC(=O)[C@H](CO)NC(=O)[C@H](C)NC(=O)[C@H](CCC(=O)O)NC(=O)CNC(=O)[C@H](Cc1c[nH]cn1)NC(=O)[C@H](Cc1ccccc1)NC(=O)[C@H](CC(C)C)NC(=O)[C@H](CC(C)C)NC(=O)[C@@H](N)CC(N)=O)C(=O)N[C@@H](CCCNC(N)=O)C(=O)N[C@H](C(=O)N[C@@H](CCCNC(=N)N)C(=O)O)[C@@H](C)O [GK 313-327] (H-NLLFHGEASEQL[Cit]TR-OH; N-terminus and C-terminus assumed) | > 50 |
| CC(C)[C@H](NC(=O)[C@H](CCC(N)=O)NC(=O)[C@H](CO)NC(=O)[C@@H](NC(=O)[C@H](Cc1ccccc1)NC(=O)[C@H](CCCNC(N)=O)NC(=O)[C@@H](NC(=O)[C@H](CCC(=O)O)NC(=O)[C@H](Cc1ccccc1)NC(=O)[C@H](C)NC(=O)CNC(=O)[C@@H](N)CCCNC(=N)N)[C@@H](C)O)C(C)C)C(=O)N[C@@H](CCC(=O)O)C(=O)N[C@@H](CO)C(=O)N[C@@H](CC(=O)O)C(=O)O [GK 327-341] (H-RGAFET[Cit]FVSQVESD-OH; N-terminus and C-terminus assumed) | > 50 |
| CC(C)[C@H](NC(=O)[C@H](CCC(N)=O)NC(=O)[C@H](CO)NC(=O)[C@@H](NC(=O)[C@H](Cc1ccccc1)NC(=O)[C@H](CCCNC(N)=O)NC(=O)[C@@H](NC(=O)[C@@H](N)CCC(=O)O)[C@@H](C)O)C(C)C)C(=O)N[C@@H](CCC(=O)O)C(=O)N[C@@H](CO)C(=O)N[C@@H](CC(=O)O)C(=O)N[C@H](C(=O)NCC(=O)N[C@@H](CC(=O)O)C(=O)O)[C@@H](C)O [GK 331-344] (H-ET[Cit]FVSQVESDTGD-OH; N-terminus and C-terminus assumed) | > 50 |
| CC[C@H](C)[C@H](NC(=O)[C@H](CC(N)=O)NC(=O)[C@@H](N)Cc1ccc(O)cc1)C(=O)N[C@@H](CC(C)C)C(=O)N[C@@H](CO)C(=O)N[C@H](C(=O)N[C@@H](CC(C)C)C(=O)NCC(=O)N[C@@H](CC(C)C)C(=O)N[C@@H](CCCNC(N)=O)C(=O)N1CCC[C@H]1C(=O)N[C@@H](CO)C(=O)N[C@H](C(=O)N[C@H](C(=O)N[C@@H](CC(=O)O)C(=O)O)[C@@H](C)O)[C@@H](C)O)[C@@H](C)O [GK 349-363] (H-YNILSTLGL[Cit]PSTTD-OH; N-terminus and C-terminus assumed) | > 50 |
| CC[C@H](C)[C@H](NC(=O)[C@H](CC(=O)O)NC(=O)[C@H](CS)NC(=O)[C@H](CC(=O)O)NC(=O)[C@@H](NC(=O)[C@@H](NC(=O)[C@H](CO)NC(=O)[C@@H]1CCCN1C(=O)[C@H](CCCNC(N)=O)NC(=O)[C@H](CC(C)C)NC(=O)CNC(=O)[C@H](CC(C)C)NC(=O)[C@@H](NC(=O)[C@H](CO)NC(=O)[C@@H](N)CC(C)C)[C@@H](C)O)[C@@H](C)O)[C@@H](C)O)C(=O)O [GK 352-366] (H-LSTLGL[Cit]PSTTDCDI-OH; N-terminus and C-terminus assumed) | > 50 |
| CC[C@H](C)[C@H](NC(=O)[C@@H](N)CC(=O)O)C(=O)N[C@H](C(=O)N[C@@H](CCCNC(N)=O)C(=O)N[C@@H](CCCNC(=N)N)C(=O)N[C@@H](C)C(=O)N[C@@H](CS)C(=O)N[C@@H](CCC(=O)O)C(=O)N[C@@H](CO)C(=O)N[C@H](C(=O)N[C@@H](CO)C(=O)N[C@H](C(=O)N[C@@H](CCCNC(N)=O)C(=O)N[C@@H](C)C(=O)O)[C@@H](C)O)C(C)C)C(C)C [GK 365-378] (H-DIV[Cit]RACESVST[Cit]A-OH; N-terminus and C-terminus assumed) | > 50 |
| CC[C@H](C)[C@H](NC(=O)[C@@H](NC(=O)CNC(=O)[C@H](C)N)C(C)C)C(=O)N[C@@H](CC(N)=O)C(=O)N[C@@H](CCCNC(N)=O)C(=O)N[C@@H](CCSC)C(=O)N[C@@H](CCCNC(N)=O)C(=O)N[C@@H](CCC(=O)O)C(=O)N[C@@H](CO)C(=O)N[C@@H](CCCNC(N)=O)C(=O)N[C@@H](CO)C(=O)N[C@@H](CCC(=O)O)C(=O)N[C@@H](CC(=O)O)C(=O)N[C@H](C(=O)O)C(C)C [GK 387-401] (H-AGVIN[Cit]M[Cit]ES[Cit]SEDV-OH; N-terminus and C-terminus assumed) | > 50 |
| CC[C@H](C)[C@H](NC(=O)[C@H](CCCNC(N)=O)NC(=O)[C@H](CCSC)NC(=O)[C@@H](NC(=O)[C@H](CC(=O)O)NC(=O)[C@H](CCC(=O)O)NC(=O)[C@@H](N)CO)C(C)C)C(=O)N[C@H](C(=O)N[C@H](C(=O)NCC(=O)N[C@H](C(=O)N[C@@H](CC(=O)O)C(=O)NCC(=O)N[C@@H](CO)C(=O)N[C@H](C(=O)O)C(C)C)C(C)C)C(C)C)[C@@H](C)O [GK 398-412] (H-SEDVM[Cit]ITVGVDGSV-OH; N-terminus and C-terminus assumed) | > 50 |
| CC(C)C[C@H](NC(=O)[C@H](CCCCN)NC(=O)[C@H](Cc1ccc(O)cc1)NC(=O)[C@@H](NC(=O)[C@H](CO)NC(=O)CN)C(C)C)C(=O)N[C@@H](Cc1c[nH]cn1)C(=O)N1CCC[C@H]1C(=O)N[C@@H](CO)C(=O)N[C@@H](Cc1ccccc1)C(=O)N[C@@H](CCCCN)C(=O)N[C@@H](CCC(=O)O)C(=O)N[C@@H](CCCNC(N)=O)C(=O)N[C@@H](Cc1ccccc1)C(=O)N[C@@H](Cc1c[nH]cn1)C(=O)O [GK 410-424] (H-GSVYKLHPSFKE[Cit]FH-OH; N-terminus and C-terminus assumed) | > 50 |
| CC(C)C[C@H](NC(=O)[C@H](CCCNC(N)=O)NC(=O)[C@H](CCCNC(=N)N)NC(=O)[C@@H](NC(=O)[C@H](CO)NC(=O)[C@H](C)NC(=O)[C@H](Cc1c[nH]cn1)NC(=O)[C@H](Cc1ccccc1)NC(=O)[C@H](CCCNC(N)=O)NC(=O)[C@H](CCC(=O)O)NC(=O)[C@H](CCCCN)NC(=O)[C@H](Cc1ccccc1)NC(=O)[C@H](CO)NC(=O)[C@@H]1CCCN1C(=O)[C@@H](N)Cc1c[nH]cn1)C(C)C)C(=O)O [GK 416-439] (H-HPSFKE[Cit]FHASVR[Cit]L-OH; N-terminus and C-terminus assumed) | > 50 |
| CC[C@H](C)[C@H](NC(=O)[C@H](Cc1ccccc1)NC(=O)[C@@H](NC(=O)[C@@H](NC(=O)[C@@H](N)CCC(=O)O)[C@@H](C)CC)[C@@H](C)O)C(=O)N[C@@H](CCC(=O)O)C(=O)N[C@@H](CO)C(=O)N[C@@H](CCC(=O)O)C(=O)N[C@@H](CCC(=O)O)C(=O)NCC(=O)N[C@@H](CO)C(=O)NCC(=O)N[C@@H](CCCNC(N)=O)C(=O)NCC(=O)N[C@@H](C)C(=O)O [GK 435-449] (H-EITFIESEEGSG[Cit]GA-OH; N-terminus and C-terminus assumed) | > 50 |

Same assay, conditions: Supplementary Table 3; competition with biotin-HA306-318 0.02 μM; representative values from two replicate experiments; read-out: IC50 (Effect of Citrulline or Arg Substitution)

| SMILES | IC50 [µM] |
| --- | --- |
| CC[C@H](C)[C@H](NC(=O)[C@H](CC(N)=O)NC(=O)[C@H](Cc1ccc(O)cc1)NC(=O)[C@@H](NC(=O)[C@H](CCC(N)=O)NC(=O)[C@@H](N)CCCCN)[C@@H](C)CC)C(=O)N[C@@H](CC(C)C)C(=O)N[C@@H](CO)C(=O)N[C@H](C(=O)N[C@@H](CC(C)C)C(=O)NCC(=O)N[C@@H](CC(C)C)C(=O)N[C@@H](CCCNC(=N)N)C(=O)N1CCC[C@H]1C(=O)N[C@@H](CO)C(=O)O)[C@@H](C)O [GK 346 WT] (H-KQIYNILSTLGLRPS-OH) | 0.47 |
| CC[C@H](C)[C@H](NC(=O)[C@H](CC(N)=O)NC(=O)[C@H](Cc1ccc(O)cc1)NC(=O)[C@@H](NC(=O)[C@H](CCC(N)=O)NC(=O)[C@@H](N)CCCCN)[C@@H](C)CC)C(=O)N[C@@H](CC(C)C)C(=O)N[C@@H](CO)C(=O)N[C@H](C(=O)N[C@@H](CC(C)C)C(=O)NCC(=O)N[C@@H](CC(C)C)C(=O)N[C@@H](CCCNC(N)=O)C(=O)N1CCC[C@H]1C(=O)N[C@@H](CO)C(=O)O)[C@@H](C)O [GK 346] (H-KQIYNILSTLGL[Cit]PS-OH) | 0.54 |
